Results as given in paper PMC7845594, “Novel Immune Modulators Enhance Caenorhabditis elegans Resistance to Multiple Pathogens” (mSphere, 2021).

Tested on: C. elegans transcriptome
Assay: Transcriptome profiling (Affymetrix microarrays), differentially expressed genes
Format: in vivo, Caenorhabditis elegans
Protocol: To gain additional insight into the effect of LK molecules on C. elegans, young-adult, wild-type worms were treated with each drug at 100 µM for 8 h in the absence of pathogen. RNA was collected, and transcriptome profiling was performed.
Data were determined using Affymetrix microarrays, as described in Materials and Methods. Download Table S3, XLSX file, 0.07 MB.
Transcriptome profiling was performed on ∼6,000 wild-type, young adult worms incubated with either LK molecules or DMSO for 8 h. RNA isolation was performed using TRIzol extraction, followed by cleanup using RNeasy columns according to the manufacturer’s protocol. Each condition was analyzed in triplicate. Microarray data have been deposited in the GEO database, accession number GSE137516. […] Clustering and generation of the heat map was performed using Cluster 3.0 ([98]) and Treeview ([99]), respectively. Fold change of genes were normalized to average fold change of that gene over all clustered conditions. Genes and conditions were clustered using Euclidean distance and average linkages. […] Microarray data for non-LK molecules were collected from GEO omnibus. WormEXP was used as a secondary method for confirming statistical significance of potential pathways stimulated by each of the LK molecules ([100]). Gene ontologies were generated using DAVID ([101], [102]).

[1] = Downregulated genes, Affy_ID 171867_x_at

CN(C)/N=N/c1ccc(-c2cn(Cc3ccccc3)cn2)cc1 [LK38]
Fold Change (Affy_ID 171867_x_at, listed under genes C09B9.6, F36H12.7, K07F5.1, R05F9.13, R13H9.2, R13H9.4, T13F2.10, T13F2.11, Y59E9AR.1, Y59E9AR.7, ZK354.1, downregulated genes): 0.2521
Fold Change (Affy_ID 176276_s_at, listed under gene Y69A2AR.25 (LK34) or Y69A2AR.12 (LK38), downregulated genes): 0.3902
Fold Change, gene ZK525.1 (Downregulated genes, Affy_ID 171849_x_at): 0.4368
Fold Change, gene ZK354.10 [1]: 0.2521
Fold Change, gene ZK354.11 [1]: 0.2521
Fold Change, gene ZK354.4 [1]: 0.2521
Fold Change, gene ZK354.5 [1]: 0.2521
Fold Change, gene ZK525.1 (Downregulated genes, Affy_ID 172214_x_at): 0.3013
Fold Change, gene ZK484.8 (Downregulated genes, Affy_ID 172381_x_at): 0.4248
Fold Change, gene ZK546.3 (Downregulated genes, Affy_ID 172798_x_at): 0.1961
Fold Change, gene ZK546.6 (Downregulated genes, Affy_ID 172900_x_at): 0.1945
Fold Change, gene ZK354.4 (Downregulated genes, Affy_ID 172922_x_at): 0.2136
Fold Change, gene ZK354.11 (Downregulated genes, Affy_ID 172925_x_at): 0.2447
Fold Change, gene ZK354.5 (Downregulated genes, Affy_ID 172928_x_at): 0.2421
Fold Change, gene ZK550.2 (Downregulated genes, Affy_ID 179513_at): 0.2459
Fold Change, gene ZK484.5 (Downregulated genes, Affy_ID 182193_at): 0.3776
Fold Change, gene ZK666.7 (Downregulated genes, Affy_ID 194066_s_at): 0.2101
Fold Change (Gene C05C12.3, Affy_ID 183355_s_at, downregulated genes): 0.3153
Fold Change (Gene C08E3.1, Affy_ID 172309_x_at, downregulated genes): 0.1357
Fold Change (Gene C08E3.13, Affy_ID 172565_x_at, downregulated genes): 0.1172
Fold Change (Gene C08F11.13, Affy_ID 175229_at, downregulated genes): 0.2733
Fold Change (Gene C08F11.13, Affy_ID 185001_at, downregulated genes): 0.09464
Fold Change (Gene C09B9.6, Affy_ID 172903_x_at, downregulated genes): 0.2435
Fold Change (Gene C14C6.2, Affy_ID 183566_at, downregulated genes): 0.3131
Fold Change (Gene R01E6.3, Affy_ID 189628_at, downregulated genes): 0.3184
Fold Change (Gene R03E9.1, Affy_ID 193723_s_at, downregulated genes): 0.2835
Fold Change (Gene R04B5.9, Affy_ID 191440_at, downregulated genes): 0.3161
Fold Change (Gene R05F9.13, Affy_ID 172714_x_at, downregulated genes): 0.2707
Fold Change (Gene R05F9.3, Affy_ID 172725_x_at, downregulated genes): 0.4569
Fold Change (Gene R05F9.8, Affy_ID 172724_x_at, downregulated genes): 0.2625
Fold Change (Gene R12C12.1, Affy_ID 190616_at, downregulated genes): 0.3782
Fold Change (Gene R13H9.2, Affy_ID 172771_x_at, downregulated genes): 0.2091
Fold Change (Gene R13H9.4, Affy_ID 172770_x_at, downregulated genes): 0.2077
Fold Change (Gene T01C3.4, Affy_ID 188106_at, downregulated genes): 0.02377
Fold Change (Gene T02B11.3, Affy_ID 174051_s_at, downregulated genes): 0.3852
Fold Change (Gene T07C4.4, Affy_ID 178149_s_at, downregulated genes): 0.3385
Fold Change (Gene T07G12.5, Affy_ID 188496_s_at, downregulated genes): 0.1128
Fold Change (Gene T08B1.6, Affy_ID 192296_at, downregulated genes): 0.264
Fold Change (Gene T08B2.12, Affy_ID 184685_s_at, downregulated genes): 0.1122
Fold Change (Gene T09F5.9, Affy_ID 188947_at, downregulated genes): 0.335
Fold Change (Gene T13F2.10, Affy_ID 172906_x_at, downregulated genes): 0.282
Fold Change (Gene T13F2.11, Affy_ID 172905_x_at, downregulated genes): 0.2555
Fold Change (Gene T14B4.4, Affy_ID 190598_at, downregulated genes): 0.3119
Fold Change (Gene T15B7.9, Affy_ID 182858_at, downregulated genes): 0.3485
Fold Change (Gene T20D4.11, Affy_ID 184438_at, downregulated genes): 0.08285
Fold Change (Gene T22H2.6, Affy_ID 180962_s_at, downregulated genes): 0.4528
Fold Change (Gene T23B7.1, Affy_ID 172486_x_at, downregulated genes): 0.4388
Fold Change (Gene T23B12.8, Affy_ID 184855_at, downregulated genes): 0.1808
Fold Change (Gene T23F4.1, Affy_ID 180223_s_at, downregulated genes): 0.03953
Fold Change (Gene T23F4.3, Affy_ID 179815_at, downregulated genes): 0.03894
Fold Change (Gene T27A10.7, Affy_ID 186153_s_at, downregulated genes): 0.1891
Fold Change (Gene T27E4.7, Affy_ID 173756_at, downregulated genes): 0.3486
Fold Change (Gene T27E4.7, Affy_ID 173757_s_at, downregulated genes): 0.3375
Fold Change (Gene T28H11.6, Affy_ID 172704_x_at, downregulated genes): 0.3336
Fold Change (Gene W04B5.2, Affy_ID 180561_at, downregulated genes): 0.445
Fold Change (Gene W07B8.5, Affy_ID 191887_s_at, downregulated genes): 0.336
Fold Change (Gene Y40D12A.2, Affy_ID 191017_at, downregulated genes): 0.3923
Fold Change (Gene Y43F8B.2, Affy_ID 172568_x_at, downregulated genes): 0.4361
Fold Change (Gene Y44A6C.1, Affy_ID 182843_at, downregulated genes): 0.4118
Fold Change (Gene Y45F10A.5, Affy_ID 184558_at, downregulated genes): 0.1874
Fold Change (Gene Y46G5A.11, Affy_ID 184716_at, downregulated genes): 0.4392
Fold Change (Gene Y48A6B.7, Affy_ID 193926_at, downregulated genes): 0.1656
Fold Change (Gene Y48A6B.7, Affy_ID 193927_s_at, downregulated genes): 0.1715
Fold Change (Gene Y51A2D.13, Affy_ID 192992_at, downregulated genes): 0.2626
Fold Change (Gene Y51H4A.7, Affy_ID 180145_s_at, downregulated genes): 0.364
Fold Change (Gene Y59E9AR.7, Affy_ID 172629_x_at, downregulated genes): 0.2101
Fold Change (Gene Y59H11AM.1, Affy_ID 172113_x_at, downregulated genes): 0.292
Fold Change (Gene Y71H2AL.1, Affy_ID 177190_at, downregulated genes): 0.3481
Fold Change (Gene Y105C5A.13, Affy_ID 172627_x_at, downregulated genes): 0.08697
Fold Change (Gene Y105C5A.24, Affy_ID 187121_at, downregulated genes): 0.3583
Fold Change (Gene Y119D3B.13, Affy_ID 175112_s_at, downregulated genes): 0.1938
Fold Change (Gene Y119D3B.13, Affy_ID 176131_at, downregulated genes): 0.2809
Fold Change (Gene ZC416.6, Affy_ID 188470_s_at, downregulated genes): 0.4112
Fold Change (Gene ZK112.1, Affy_ID 175995_at, downregulated genes): 0.3894
Fold Change (Gene ZK131.4, Affy_ID 190307_s_at, downregulated genes): 0.355
Fold Change (Gene ZK131.7, Affy_ID 172871_x_at, downregulated genes): 0.3915
Fold Change (Gene ZK354.1, Affy_ID 172927_x_at, downregulated genes): 0.2349
Fold Change (Gene ZK1248.4, Affy_ID 172734_x_at, downregulated genes): 0.2783
Fold Change (Gene ZK1248.6, Affy_ID 172887_x_at, downregulated genes): 0.1775
Fold Change (Gene ZK1251.6, Affy_ID 172938_x_at, downregulated genes): 0.2909
Fold Change (upregulated gene Y19D10A.9, Affy_ID 180592_s_at): 3.58
Fold Change (upregulated gene Y22F5A.4, Affy_ID 182989_at): 2.438
Fold Change (upregulated gene Y22F5A.5, Affy_ID 183028_s_at): 6.765
Fold Change (upregulated gene Y37D8A.6, Affy_ID 181665_at): 2.8924
Fold Change (upregulated gene Y37E3.16, Affy_ID 173045_at): 4.522
Fold Change (upregulated gene Y38E10A.14, Affy_ID 175449_s_at): 26.3223
Fold Change (upregulated gene Y39G10AR.10, Affy_ID 176486_at): 4.567
Fold Change (upregulated gene Y40B10A.6, Affy_ID 176851_at): 66.4819
Fold Change (upregulated gene Y41C4A.16, Affy_ID 194230_x_at): 2.891
Fold Change (upregulated gene Y41D4B.10, Affy_ID 176055_at): 10.2277
Fold Change (upregulated gene Y41D4B.16, Affy_ID 176044_at): 4.224
Fold Change (upregulated gene Y45F10C.4, Affy_ID 186062_at): 3.88
Fold Change (upregulated gene Y45G12C.2, Affy_ID 187084_at): 31.3356
Fold Change (upregulated gene Y46C8AL.2, Affy_ID 172184_x_at): 22.6612
Fold Change (upregulated gene Y46G5A.4, Affy_ID 187467_s_at): 2.088
Fold Change (upregulated gene Y47D3B.10, Affy_ID 175803_at): 15.9397
Fold Change (upregulated gene Y47D7A.1, Affy_ID 176618_at): 2.89
Fold Change (upregulated gene Y47H9C.5, Affy_ID 191065_s_at): 3.429
Fold Change (upregulated gene Y51H7C.1, Affy_ID 186349_at): 10.9287
Fold Change (upregulated gene Y53G8B.2, Affy_ID 184714_s_at): 6.111
Fold Change (upregulated gene Y54G2A.6, Affy_ID 173144_at): 2.211
Fold Change (upregulated gene Y55B1AR.1, Affy_ID 187047_at): 6.195
Fold Change (upregulated gene Y57A10A.23, Affy_ID 187073_at): 4.734
Fold Change (upregulated gene Y66D12A.24, Affy_ID 175124_at): 2.206
Fold Change (upregulated gene Y77E11A.2, Affy_ID 187013_at): 2.874
Fold Change (upregulated gene Y105C5B.15, Affy_ID 186799_at): 3.08
Fold Change (upregulated gene Y105C5B.9, Affy_ID 185162_at): 4.4277
Fold Change (upregulated gene Y106G6D.6, Affy_ID 185498_at): 6.567
Fold Change (upregulated gene ZC155.1, Affy_ID 173222_s_at): 2.443
Fold Change (upregulated gene ZK455.1, Affy_ID 193891_at): 2.648
Fold Change (upregulated gene ZK455.7, Affy_ID 193924_at): 3.307
Fold Change (upregulated gene ZK512.7, Affy_ID 186714_s_at): 3.427
Fold Change (upregulated gene ZK637.13, Affy_ID 173475_s_at): 2.9018
Fold Change (upregulated gene ZK770.3, Affy_ID 180366_s_at): 3.303
Fold Change (upregulated gene ZK899.2, Affy_ID 178376_s_at): 3.754
